Test results as given in patent US20260022142A1, “MACROCYCLIC IMMUNOMODULATORS” (Bristol-Myers Squibb Company, priority 2022, published 2026).
Numbered stars: 1 amine (or outer) side, 2 acyl side, 3 side chain; on linkers, the order of the positions; unused ones are H or OH. Bridge positions count the residues as written; N and C are the ends. Square brackets hold non-standard residues; d marks the D form. Peptide text beside a SMILES is read from it. * marks the point of attachment. ξ: configuration not given here. Phe(3-CF3) = N[C@@H](Cc1cccc(C(F)(F)F)c1)C(=O)O; Phe(4-COOH) = N[C@@H](Cc1ccc(C(=O)O)cc1)C(=O)O; Bip = N[C@@H](Cc1ccc(-c2ccccc2)cc1)C(=O)O; Phe(3-Me) = Cc1cccc(C[C@H](N)C(=O)O)c1; γGlu = O=C(O)[C@H](CCC(=O)[*:2])N[*:1]; NH(CH2)12COOH = O=C(O)CCCCCCCCCCCCN*; Val(3-OH) = CC(C)(O)[C@H](N)C(=O)O; hArg = N=C(N)NCCCC[C@H](N)C(=O)O; 4Pal = N[C@@H](Cc1ccncc1)C(=O)O; X1 = O=C(CN1CCN([*:1])CC1)[*:2]; Cha = N[C@@H](CC1CCCCC1)C(=O)O; Cit = NC(=O)NCCC[C@H](N)C(=O)O; Thr(3ξ) = CC(O)[C@H](N)C(=O)O; PEG4 = NCCOCCOCCOCCOCCC(=O)O; Carboxymethyl = O=C(O)C*; Orn = NCCC[C@H](N)C(=O)O; Pra = C#CC[C@H](N)C(=O)O; Aun = NCCCCCCCCCCC(=O)O; Dab = NCC[C@H](N)C(=O)O; Nva = CCC[C@H](N)C(=O)O; Dap = NC[C@H](N)C(=O)O; AEEA = NCCOCCOCC(=O)O

Molecular target: T1, PD-1/PD-L1 interaction (PE-labeled human PD-L1-Ig binding to Jurkat cell line over-expressing human PD-1) (Homo sapiens, UniProt Q15116)
T1 construct: expressed in transfected cells; host or cells: Jurkat
Test: Jurkat-PD-1 Cell Binding High-Content Screening Assay (CBA)
Assay type: cell-based
Conditions: Jurkat cell line over-expressing human PD-1; PE-labeled PD-L1-Ig 20 nM final; read-out: Jurkat hPD1-PDL1 IC50
Outline: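 Human PD-L1-Ig carrying a covalent PE label on its Ig tag serves as the probe, applied at 20 nM final to compound-treated (2 h, 37° C) Jurkat-hPD-1 cells in medium with 10% fetal calf serum. After one hour, fixation and nuclear staining precede high-content image analysis.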

T1 sequence (Q15116 25-288): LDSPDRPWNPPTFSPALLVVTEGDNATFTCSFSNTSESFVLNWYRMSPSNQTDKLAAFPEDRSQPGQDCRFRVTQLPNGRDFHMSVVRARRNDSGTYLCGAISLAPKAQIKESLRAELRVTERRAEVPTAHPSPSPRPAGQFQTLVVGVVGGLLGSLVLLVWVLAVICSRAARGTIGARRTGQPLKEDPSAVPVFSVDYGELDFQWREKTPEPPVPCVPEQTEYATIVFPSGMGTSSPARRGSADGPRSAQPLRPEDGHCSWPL

Row | IC50 [nM] | Structure (SMILES)
1 | 10.3 | Cc1cccc(C[C@@H]2NC(=O)[C@H](CC(=O)O)NC(=O)[C@H](Cc3ccc(OCC(=O)O)cc3)NC(=O)[C@H](CN)NC(=O)CSC[C@@H](C(=O)N[C@@H](CCN)C(=O)NCCOCCOCC(=O)NCCCCCCCCCCC(=O)O)NC(=O)[C@H](CCCNC(=N)N)NC(=O)[C@H](C(C)C)NC(=O)[C@H](CC3CCCCC3)NC(=O)[C@H](CCN)NC(=O)[C@@H](CC(C)C)NC(=O)[C@H](CCCN)NC(=O)[C@H](CCCNC(N)=O)NC(=O)[C@H](Cc3ccc(-c4ccccc4)cc3)NC(=O)[C@H](C(C)C)NC2=O)c1 [Compound 2635] ({CH2CO}-[Dap]Y(Carboxymethyl)D[Phe(3-Me)]V[Bip][Cit][Orn][dL][Dab][Cha]VRC[Dab][AEEA][Aun]-OH; thioether N-14)
2 | 171 | CC(C)C[C@@H]1NC(=O)[C@H](Cc2c[nH]c3ccccc23)NC(=O)[C@H](CC(=O)O)NC(=O)[C@H](Cc2ccncc2)NC(=O)[C@H](Cc2ccc(OCC(=O)O)cc2)NC(=O)CSC[C@@H](C(=O)N2CCN(CC(=O)NCCCCCCCCCCC(=O)O)CC2)NC(=O)[C@H](C(C)O)NC(=O)[C@H](C(C)C)NC(=O)[C@H](CC2CCCCC2)NC(=O)[C@H](CCN)NC(=O)[C@@H](CC(C)C)NC(=O)[C@H](CCCN)NC(=O)[C@H](C(C)C)NC(=O)[C@H](Cc2ccc(-c3ccccc3)cc2)NC1=O (stereo partly drawn) [Compound 1225] ({CH2CO}-Y(Carboxymethyl)[4Pal]DWL[Bip]V[Orn][dL][Dab][Cha]V[Thr(3ξ)]C[X1][Aun]-OH; thioether N-14)
3 | 13.7 | C#CC[C@H](NC(=O)COCCOCCNC(=O)[C@H](CCN)NC(=O)[C@@H]1CSCC(=O)N[C@@H](Cc2ccncc2)C(=O)N[C@@H](Cc2ccc(OCC(=O)O)cc2)C(=O)N[C@@H](CC(=O)O)C(=O)N[C@@H](Cc2c[nH]c3ccccc23)C(=O)N[C@@H](C(C)C)C(=O)N[C@@H](Cc2ccc(-c3ccccc3)cc2)C(=O)N[C@@H]([C@@H](C)CC)C(=O)N[C@@H](CCCN)C(=O)N[C@H](CC(C)C)C(=O)N[C@@H](CCN)C(=O)N[C@@H](CC(C)C)C(=O)N[C@@H](C(C)C)C(=O)N[C@@H]([C@@H](C)O)C(=O)N1)C(=O)N[C@@H](CCCN)C(=O)NCCCCCCCCCCC(=O)O [Compound 1195] ({CH2CO}-[4Pal]Y(Carboxymethyl)DWV[Bip]I[Orn][dL][Dab]LVTC[Dab][AEEA][Pra][Orn][Aun]-OH; thioether N-14)
4 | 7.4 | Cc1cccc(C[C@@H]2NC(=O)[C@H](CC(=O)O)NC(=O)[C@H](Cc3ccc(OCC(=O)O)cc3)NC(=O)[C@H](C(C)O)NC(=O)CSC[C@@H](C(=O)NCCOCCOCC(=O)NCCCCCCCCCCC(=O)O)NC(=O)[C@H](CCCNC(N)=O)NC(=O)[C@H](C(C)C)NC(=O)[C@H](CC3CCCCC3)NC(=O)[C@H](CCN)NC(=O)[C@@H](CC(C)C)NC(=O)[C@H](CCN)NC(=O)[C@H](Cc3ccc(O)cc3)NC(=O)[C@H](Cc3ccc(-c4ccccc4)cc3)NC(=O)[C@H](C(C)C)NC2=O)c1 (stereo partly drawn) [Compound 3397] ({CH2CO}-[Thr(3ξ)]Y(Carboxymethyl)D[Phe(3-Me)]V[Bip]Y[Dab][dL][Dab][Cha]V[Cit]C[AEEA][Aun]-OH; thioether N-14)
5 | 42.6 | CC(C)C[C@H]1NC(=O)[C@H](CCCN)NC(=O)[C@H](C(C)C)NC(=O)[C@H](Cc2ccc(-c3ccccc3)cc2)NC(=O)[C@H](C(C)C)NC(=O)[C@H](Cc2c[nH]c3ccccc23)NC(=O)[C@H](CC(=O)O)NC(=O)[C@H](Cc2ccc(OCC(=O)O)cc2)NC(=O)[C@H](CCCCNC(=N)N)NC(=O)CSC[C@@H](C(=O)N[C@@H](CCCN)C(=O)NCCCCCCCCCCC(=O)O)NC(=O)[C@H](C(C)O)NC(=O)[C@H](C(C)C)NC(=O)[C@H](CC2CCCCC2)NC(=O)[C@H](Cc2cnc[nH]2)NC1=O (stereo partly drawn) [Compound 3159] ({CH2CO}-[hArg]Y(Carboxymethyl)DWV[Bip]V[Orn][dL]H[Cha]V[Thr(3ξ)]C[Orn][Aun]-OH; thioether N-14)
6 | 4.3 | Cc1cccc(C[C@@H]2NC(=O)[C@H](CC(=O)O)NC(=O)[C@H](Cc3ccc(OCC(=O)O)cc3)NC(=O)[C@H](CN)NC(=O)CSC[C@@H](C(=O)NCCOCCOCC(=O)N[C@@H](CCC(=O)NCCCCCCCCCCC(=O)O)C(=O)O)NC(=O)[C@H]([C@@H](C)O)NC(=O)[C@H](C(C)C)NC(=O)[C@H](CC3CCCCC3)NC(=O)[C@H](CCN)NC(=O)[C@@H](CC(C)C)NC(=O)[C@H](CCCN)NC(=O)[C@H](CCCNC(N)=O)NC(=O)[C@H](Cc3ccc(-c4ccccc4)cc3)NC(=O)[C@H](C(C)C)NC2=O)c1 [Compound 1030] ({CH2CO}-[Dap]Y(Carboxymethyl)D[Phe(3-Me)]V[Bip][Cit][Orn][dL][Dab][Cha]VTC[AEEA][γGlu][Aun]-OH; thioether N-14)

Further lines, the molecule ahead of its results:

Row | Structure (SMILES) | IC50 [nM]
7 | CC(C)C[C@H]1NC(=O)[C@H](CCCN)NC(=O)[C@H](Cc2ccc(O)cc2)NC(=O)[C@H](Cc2ccc(-c3ccccc3)cc2)NC(=O)[C@H](Cc2ccc(O)cc2)NC(=O)[C@H](Cc2c[nH]c3ccccc23)NC(=O)[C@H](CC(=O)O)NC(=O)[C@H](Cc2ccc(C(=O)O)cc2)NC(=O)[C@H](Cc2ccc(OCC(=O)O)cc2)NC(=O)CSC[C@@H](C(=O)N[C@@H](CCN)C(=O)NCCOCCOCC(=O)NCCCCCCCCCCC(=O)O)NC(=O)[C@H](CCCCN)NC(=O)[C@H](Cc2ccc(O)cc2)NC(=O)[C@H](CC2CCCCC2)NC(=O)[C@H](CCN)NC1=O [Compound 2501] ({CH2CO}-Y(Carboxymethyl)[Phe(4-COOH)]DWY[Bip]Y[Orn][dL][Dab][Cha]YKC[Dab][AEEA][Aun]-OH; thioether N-14) | 28.4
8 | CCC[C@@H]1NC(=O)[C@H](CCN)NC(=O)[C@@H](CC(C)C)NC(=O)[C@H](CCCN)NC(=O)[C@H](Cc2ccc(OCC(=O)O)cc2)NC(=O)[C@H](Cc2ccc(-c3ccccc3)cc2)NC(=O)[C@H](Cc2ccc(OCC(=O)O)cc2)NC(=O)[C@H](Cc2cccc(C)c2)NC(=O)[C@H](CC(=O)O)NC(=O)[C@H](Cc2ccc(OCC(=O)O)cc2)NC(=O)[C@H](CN)NC(=O)CSC[C@@H](C(=O)N[C@@H](CCN)C(=O)NCCOCCOCC(=O)NCCCCCCCCCCC(=O)O)NC(=O)[C@H](CCC(=O)O)NC(=O)[C@H](C(C)C)NC1=O [Compound 1259] ({CH2CO}-[Dap]Y(Carboxymethyl)D[Phe(3-Me)]Y(Carboxymethyl)[Bip]Y(Carboxymethyl)[Orn][dL][Dab][Nva]VEC[Dab][AEEA][Aun]-OH; thioether N-14) | 153
9 | Cc1cccc(C[C@@H]2NC(=O)[C@H](CC(=O)O)NC(=O)[C@H](Cc3ccc(OCC(=O)O)cc3)NC(=O)[C@H](CN)NC(=O)CSC[C@@H](C(=O)N[C@@H](CCCN)C(=O)NCCCCCCCCCCC(=O)O)NC(=O)[C@H](CCC(N)=O)NC(=O)[C@H](C(C)C)NC(=O)[C@H](CC3CCCCC3)NC(=O)[C@H](CCN)NC(=O)[C@@H](CC(C)C)NC(=O)[C@H](CCN)NC(=O)[C@H](Cc3ccc(OCC(=O)O)cc3)NC(=O)[C@H](Cc3ccc(-c4ccccc4)cc3)NC(=O)[C@H](Cc3ccc(OCC(=O)O)cc3)NC2=O)c1 [Compound 2857] ({CH2CO}-[Dap]Y(Carboxymethyl)D[Phe(3-Me)]Y(Carboxymethyl)[Bip]Y(Carboxymethyl)[Dab][dL][Dab][Cha]VQC[Orn][Aun]-OH; thioether N-14) | 35
10 | CCC[C@@H]1NC(=O)CSC[C@@H](C(=O)N[C@@H](CCN)C(=O)NCCOCCOCCOCCOCCC(=O)NCCCCCCCCCCCCC(=O)O)NC(=O)[C@H](CO)NC(=O)[C@H](C(C)(C)O)NC(=O)[C@H](CC2CCCCC2)NC(=O)[C@H](CCN)NC(=O)[C@@H](CC(C)C)NC(=O)[C@H](CCCN)NC(=O)[C@H](Cc2ccc(OCC(=O)O)cc2)NC(=O)[C@H](Cc2ccc(-c3ccccc3)cc2)NC(=O)[C@H](Cc2ccc(OCC(=O)O)cc2)NC(=O)[C@H](Cc2cccc(C(F)(F)F)c2)NC(=O)[C@H](CC(=O)O)NC(=O)[C@H](Cc2ccc(C(=O)O)cc2)NC1=O [Compound 2901] ({CH2CO}-[Nva][Phe(4-COOH)]D[Phe(3-CF3)]Y(Carboxymethyl)[Bip]Y(Carboxymethyl)[Orn][dL][Dab][Cha][Val(3-OH)]SC[Dab][PEG4]-{NH(CH2)12COOH}; thioether N-14) | 24.1
11 | Cc1cccc(C[C@@H]2NC(=O)[C@H](CC(=O)O)NC(=O)[C@H](Cc3ccc(OCC(=O)O)cc3)NC(=O)[C@H](Cc3cnc[nH]3)NC(=O)CSC[C@@H](C(=O)N[C@@H](CCN)C(=O)NCCCCCCCCCCC(=O)O)NC(=O)[C@H](CO)NC(=O)[C@H](C(C)(C)O)NC(=O)[C@H](CC3CCCCC3)NC(=O)[C@H](CCN)NC(=O)[C@@H](CC(C)C)NC(=O)[C@H](CCCN)NC(=O)[C@H](Cc3ccc(OCC(=O)O)cc3)NC(=O)[C@H](Cc3ccc(-c4ccccc4)cc3)NC(=O)[C@H](Cc3ccc(OCC(=O)O)cc3)NC2=O)c1 [Compound 2219] ({CH2CO}-HY(Carboxymethyl)D[Phe(3-Me)]Y(Carboxymethyl)[Bip]Y(Carboxymethyl)[Orn][dL][Dab][Cha][Val(3-OH)]SC[Dab][Aun]-OH; thioether N-14) | 4.7
12 | CC(C)C[C@@H]1NC(=O)[C@H](Cc2c[nH]c3ccccc23)NC(=O)[C@H](CC(=O)O)NC(=O)[C@H](Cc2ccc(C(=O)O)cc2)NC(=O)[C@H](Cc2ccc(OCC(=O)O)cc2)NC(=O)CSC[C@@H](C(=O)N[C@@H](CCCNC(=N)N)C(=O)NCCCCCCCCCCC(=O)O)NC(=O)[C@H](CCCNC(N)=O)NC(=O)[C@H](C(C)C)NC(=O)[C@H](CC2CCCCC2)NC(=O)[C@H](CCN)NC(=O)[C@@H](CC(C)C)NC(=O)[C@H](CCCN)NC(=O)[C@H](Cc2ccc(O)cc2)NC(=O)[C@H](Cc2ccc(-c3ccccc3)cc2)NC1=O [Compound 1237] ({CH2CO}-Y(Carboxymethyl)[Phe(4-COOH)]DWL[Bip]Y[Orn][dL][Dab][Cha]V[Cit]CR[Aun]-OH; thioether N-14) | 70.6
